In this assay the target is T1, Cholesteryl ester transfer protein (Homo sapiens, UniProt P11597).
T1 sequence (P11597 whole entry): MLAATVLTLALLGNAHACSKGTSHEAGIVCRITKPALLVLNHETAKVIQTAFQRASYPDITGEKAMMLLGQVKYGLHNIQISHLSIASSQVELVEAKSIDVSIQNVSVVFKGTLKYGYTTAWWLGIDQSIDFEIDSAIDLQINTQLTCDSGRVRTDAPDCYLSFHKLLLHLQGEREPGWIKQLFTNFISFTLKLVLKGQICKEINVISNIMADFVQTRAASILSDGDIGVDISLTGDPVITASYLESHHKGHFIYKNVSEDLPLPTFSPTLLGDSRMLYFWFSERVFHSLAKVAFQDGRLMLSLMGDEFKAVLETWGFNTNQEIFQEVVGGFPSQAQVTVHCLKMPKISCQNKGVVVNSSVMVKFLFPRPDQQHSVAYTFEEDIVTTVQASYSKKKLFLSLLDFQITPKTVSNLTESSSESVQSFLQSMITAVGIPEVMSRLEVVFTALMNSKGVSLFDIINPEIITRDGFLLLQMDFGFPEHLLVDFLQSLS
Description: Scintillation Proximity Assay (SPA): First, low density lipoprotein (LDL) (Meridian) was biotinylated by incubating LDL with biotin for 1 hour on ice, after which it was dialyzed to remove free biotin. Then compounds at varying concentrations were incubated with 15 nM CETP (reagent production group, In Vitro Pharmacology, MRL Rahway) and 50 ug/ml of the biotinylated LDL in 50 mM HEPES, 150 mM NaCl, pH 7.4, for 1 hour at 37° C. The reaction was started by adding 3H-cholesterol ester high density lipoprotein (HDL) (American Radiochemicals Corp) at a concentration of ~0.6 nM. The reaction proceeded for 2 hours at 37° C., after which time it was quenched by the addition of 12% acetic acid. PVT streptavadin-coated scintillation proximity beads, which had been brought to room temperature, were then added at a concentration of 4 mg/ml. The assay was then mixed and counted after one half hour in a Microbeta plate reader. A general note: In a scintillation proximity assay essentially only radioactivity close to the scintillant gives light.

These results are taken from ChEMBL document CHEMBL3886228, “Substituted benzopiperazines as CETP inhibitors” (2015).

In general, IC50 refers to the concentration needed to halve the response being measured. A low value points to higher potency.

Molecules are shown by their SMILES.

`CCOc1cccc(CN2C[C@@H](c3cccc(C(F)(F)F)c3)N(C[C@@H](O)C(F)(F)F)c3ccccc32)n1` returned an IC50 of 310 nM. Regarding `O[C@H](CN1c2ccccc2N(Cc2cccc(OC(F)(F)F)c2)C[C@H]1c1cccc2ccccc12)C(F)(F)F`, the midpoint of inhibition, the IC50, lay at 1430 nM. Take `COc1cccnc1CN1C[C@@H](c2cccc(C(F)(F)F)c2)N(C[C@@H](O)C(F)(F)F)c2ccccc21`: the IC50 was found to be 210 nM. As to `Cc1cc(CN2C[C@@H](c3cccc(C(F)(F)F)c3)N(C[C@@H](O)C(F)(F)F)c3ccccc32)cc(Cl)n1`, the IC50 is 67 nM. The value for `CC(C)Oc1cccc(CN2C[C@@H](c3cccc(C(F)(F)F)c3)N(C[C@@H](O)C(F)(F)F)c3ccccc32)n1` was 750 nM; that for `COc1cccc(CN2C[C@@H](c3cccc(C(F)(F)F)c3)N(C[C@@H](O)C(F)(F)F)c3ccccc32)n1` was 630 nM.
